{"source": "patent US8962576B2", "about": "“Compositions and method for improving endothelial function and cardiovascular health” (Natreon, Inc., priority 2012, dated 2015)", "type_in_all_cases": "in vivo, human", "key": {"[1]": {"tested_on": "Type 2 Diabetic Subjects", "experiment": "Clotting time, Capillary Tube Method, study (c) subset (i)", "settings": "Table XIV-B, n = 10", "protocol": "Clotting Time: Clotting time in seconds was recorded at baseline and at day 10, after 4 hrs post treatment in all the treatment groups by Capillary Tube Method. Normal Range-300-480 Sec."}, "[2]": {"tested_on": "Type 2 Diabetic Subjects", "experiment": "Bleeding time, Duke's Method, study (c) subset (i)", "settings": "Table XIV-A, n = 10", "protocol": "Bleeding Time: Bleeding time in seconds was recorded at baseline and at day 10, after 4 hrs post treatment in all the treatment groups by Duke's Method. Normal Range: 60-180 Sec."}, "[3]": {"tested_on": "platelet aggregation", "experiment": "Inhibition of platelet aggregation using ADP as aggregant, study (c) subset (i)", "settings": "Clopidogrel 75 mg single dose Day 1, CAPROS 500 mg BD multiple dose Day 10, combination Day 11, n = 10", "protocol": "The platelet aggregation was determined by the following procedure using Wheecon chronologue dual channel platelet aggregometer (Wheecon Instruments Pvt. Ltd., Chemai, Tamilnadu, India). The percentage decrease in platelet aggregation was recorded at baseline and 3 hours post treatment. Approximately 9 ml of blood sample was collected in a 10 ml plastic test tube containing 1 ml of 3.8% Sodium Citrate from the cubital vein of the subject at baseline and after 3 hours post treatment in all the groups. The test was performed immediately within a time period of one and half hours from collection. The samples were centrifuged at 800 rpm for 15 minutes to obtain a platelet-rich plasma. […] The readings were recorded at baseline and after treatment with ADP. The percentage aggregation at baseline and the percentage inhibition of platelet aggregation on post treatment with all the four treatments was calculated. […]\nThe effect of CAPROS® 500 mg BD (multiple dose study), Clopidogrel 75 mg (single dose study) and Capros 500 mg+Clopidogrel 75 mg on platelet function was determined by the following procedure using the dual channel platelet aggregometer instrument, as described above. The percentage aggregation at baseline and the percentage inhibition of platelet aggregation on post treatment with all the three treatments was calculated."}, "[4]": {"settings": "4th Hr Post treatment, Clopidogrel 75 mg Day 1, CAPROS 500 mg BD Day 10, combination Day 11"}, "[5]": {"settings": "Baseline, Clopidogrel 75 mg single dose, CAPROS 500 mg BD multiple dose, combination"}}, "data": [{"compound": "COC(=O)[C@H](c1ccccc1Cl)N1CCc2sccc2C1", "note": "[CLOPIDOGREL, Clopidogrel]", "values": [{"measurement": "Bleeding Time, Mean", "setting": "[1]; [4]", "value": 249.5, "unit": "s"}, {"measurement": "Bleeding Time, Mean", "setting": "[1]; [5]", "value": 207.5, "unit": "s"}, {"measurement": "Bleeding Time, Mean", "setting": "[2]; [4]", "value": 97.30, "unit": "s"}, {"measurement": "Bleeding Time, Mean", "setting": "[2]; [5]", "value": 84.40, "unit": "s"}, {"measurement": "inhibition of platelet aggregation, Mean", "setting": "[3]", "value": 47.40, "unit": "%"}]}]}
